# Laboratory results reported in patent US9487489B2, “Halogen-substituted pyrazole derivatives as pest-control agents” (BAYER CROPSCIENCE AKTIENGESELLSCHAFT, priority 2013, dated 2016).
# How the values were obtained:
# [1] = tested on: larvae of the mustard beetle (Phaedon cochleariae); test: Phaedon cochleariae spray test (PHAECO); assay type: in vivo; conditions: Chinese cabbage leaf discs, after 7 days
# In short: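 Compound dissolved in acetone/dimethylformamide with alkylaryl polyglycol ether emulsifier, made up in water containing 1000 ppm emulsifier, then diluted to test concentrations and sprayed against mustard beetle larvae. Efficacy (% larvae killed) scored after 7 days.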
# [2] = tested on: adult cat fleas (Ctenocephalides felis); test: Ctenocephalides felis oral test (CTECFE); assay type: in vivo; conditions: application rate 100 ppm in citrated cattle blood; after 2 days
# In short: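 About 20 unfed adult cat fleas fed through parafilm membrane on citrated cattle blood containing compound (DMSO stock diluted in blood to test concentration). Kill % scored after 2 days (100% = all fleas dead).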
# [3] = tested on: adult dog ticks (Rhipicephalus sanguineus); test: Rhipicephalus sanguineus in vitro contact test with adult brown dog ticks (T2); conditions: after 48 h
# In short: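 Acetone solutions coated onto test tube walls and floor, giving 5 μg/cm^2 at 900 ppm. Five to ten adult ticks held per tube in the dark at room temperature for 48 h, then heated at 45-50° C for up to 5 min; efficacy is the percentage of dead or moribund ticks unable to climb away.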
# [4] = tested on: greenhouse red spider mite (Tetranychus urticae); test: Tetranychus urticae spray test, OP-resistant (TETRUR); assay type: in vivo; conditions: bean leaf discs, after 6 days
# In short: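 Bean leaf discs carrying all stages of OP-resistant Tetranychus urticae were sprayed with compound formulated in acetone/dimethylformamide and diluted in water with 1000 ppm alkylaryl polyglycol ether emulsifier. Mortality (% efficacy, 100% = all mites killed) scored after 6 days.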
# [5] = tested on: L1 larvae of the Australian sheep blowfly (Lucilia cuprina); test: Lucilia cuprina test (LUCICU); assay type: in vivo; conditions: application rate 100 ppm; after 2 days
# In short: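 About 20 L1 larvae placed in a vessel with minced horsemeat plus compound (DMSO concentrate diluted with water to the desired concentration). Kill in % scored after 2 days, 100% meaning all larvae dead.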
# [6] = tested on: caterpillars of the armyworm (Spodoptera frugiperda); test: Spodoptera frugiperda spray test (SPODFR); assay type: in vivo; conditions: maize leaf discs, after 7 days
# In short: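 Maize leaf discs sprayed with compound in acetone/DMF with alkylaryl polyglycol ether emulsifier (1000 ppm) in water, dried, then infested with armyworm caterpillars. Mortality (%) scored after 7 days; 100% = all caterpillars killed, 0% = none killed.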
# [7] = tested on: Tick nymphs (Amblyomma hebraeum); test: Amblyomma hebraeum test (AMBYHE), tick nymphs immersed; assay type: in vivo; conditions: application rate 100 ppm; immersed one minute; after 42 days
# Method: A. Amblyomma hebaraeum Test (AMBYHE)
# Solvent: dimethyl sulphoxide
# To produce a suitable preparation of active compound, 10 mg of active compound are mixed with 0.5 ml of dimethyl sulfoxide, and the concentrate is diluted with water to the desired concentration.
# Tick nymphs (Amblyomma hebraeum) are placed into perforated plastic beakers and immersed in the desired concentration for one minute. The ticks are transferred on filter paper into a Petri dish and stored in a climate-controlled cabinet.
# After 42 days, the kill in % is determined. 100% means that all of the ticks have been killed; 0% means that none of the ticks have been killed.
# [8] = tested on: adult houseflies (Musca domestica); test: Musca domestica test (MUSCDO); assay type: in vivo; conditions: application rate 100 ppm; after 2 days
# In short: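 Compound dissolved in DMSO and diluted with water to the test concentration, applied with sugar solution on a sponge; 10 adult houseflies per vessel. Mortality scored after 2 days as % kill (100% all dead, 0% none).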
# [9] = tested on: adult cat fleas (Ctenocephalides felis); test: Ctenocephalides felis in vitro contact test with adult cat fleas (T1); conditions: after 48 h
# In short: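 Test compound was dissolved in acetone p.a. (9 mg per 1 ml) and diluted as needed. 250 μl was spread evenly over the inner walls and floor of a 25 ml test tube by rotating on an orbital shaker for 2 h at 30 rpm. Once the solvent evaporated, 5-10 adult Ctenocephalides felis were added. Tubes were capped with a perforated plastic lid and kept horizontal at room temperature and ambient humidity.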
# [10] = tested on: cattle ticks (Boophilus microplus) Parkhurst strain, SP-resistant; test: Boophilus microplus dip test (BOOPMI Dip); assay type: in vivo; conditions: application rate 100 ppm, assessed after 7 days
# In short: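 Adult engorged female SP-resistant Parkhurst ticks (8–10) were fully immersed in compound diluted in water from a DMSO solution, then kept in a climate-controlled room. After 7 days, fertile egg-laying was scored, with larval hatching checked at about 42 days; 100% efficacy means no fertile eggs.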
# [11] = tested on: engorged adult female cattle ticks (Boophilus microplus); test: Boophilus microplus injection test (BOOPMI Inj); assay type: in vivo; conditions: application rate 20 μg/animal; injection into abdomen; assessed after 7 days
# In short: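 DMSO solution of compound (1 μl) injected into the abdomen of 5 engorged adult female ticks, which are then held in a climate-controlled room. After 7 days, efficacy is scored from laying of fertile eggs, with unclear eggs kept until larval hatch (~42 days); 100% means no fertile eggs, 0% all fertile.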
# [12] = tested on: green peach aphid (Myzus persicae); test: Myzus persicae spray test (MYZUPE); assay type: in vivo; conditions: Chinese cabbage leaf discs, after 6 days
# In short: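 Chinese cabbage leaf discs infested with all aphid stages sprayed with compound in acetone/DMF with alkylaryl polyglycol ether emulsifier in water. Efficacy (% aphids killed; 100% all dead, 0% none) scored after 6 days.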
# [13] = tested on: bont tick nymphs (Amblyomma hebraeum); conditions: after 48 h
# [14] = tested on: adult castor bean ticks (Ixodes ricinus); test: Ixodes ricinus in vitro contact test with adult castor bean ticks (T3); conditions: after 48 h
# Method: T3. Ixodes ricinus-in vitro Contact Tests with Adult Castor Bean Ticks
# For the coating of the test tubes, initially 9 mg of active compound are dissolved in 1 ml of acetone p.a. and then diluted with acetone p.a. to the desired concentration. By turning and rocking on an orbital shaker (2 h of rocking rotation at 30 rpm), 250 μl of the solution are distributed homogeneously on the internal walls and the floor of a 25 ml test tube. At 900 ppm active compound solution and 44.7 cm^2 internal surface, an area dose of 5 μg/cm^2 is achieved for homogeneous distribution.
# After evaporation of the solvent, the tubes are populated with 5-10 adult castor bean ticks (Ixodes ricinus), sealed with a perforated plastic lid and incubated in a horizontal position in the dark at 22° C. and 90% humidity in a climate-controlled cabinet. After 48 h, the efficacy is determined. To this end, the ticks are knocked to the floor of the tube and incubated on a hotplate at 45-50° C. for at most 5 min. Ticks which remain motionless on the floor or move in an uncoordinated manner such that they are not able to deliberately avoid the heat by climbing upwards are considered to be dead or moribund.
# An efficacy of 100% means that all ticks were dead or moribund. 0% efficacy means that none of the ticks had been damaged.
Compound,efficacy in % ([1]; application rate 500 g/ha),efficacy (kill in %) [2],efficacy (dead or moribund ticks) ([3]; application rate 5 μg/cm^2),efficacy in % ([4]; application rate 500 g/ha),efficacy (kill in %) [5],efficacy in % ([6]; application rate 500 g/ha),efficacy (kill in %) [7],efficacy (kill in %) [8],efficacy (dead or moribund fleas) ([9]; application rate 1 μg/cm^2),efficacy (dead or moribund fleas) ([9]; application rate 5 μg/cm^2),efficacy (laying of fertile eggs) [10],efficacy (laying of fertile eggs) [11],efficacy in % ([12]; application rate 500 g/ha),efficacy (dead or moribund ticks) ([3]; application rate 1 μg/cm^2),efficacy (dead or moribund ticks) [13],efficacy (dead or moribund ticks) ([14]; application rate 1 μg/cm^2),efficacy (dead or moribund ticks) ([14]; application rate 5 μg/cm^2),further results
Cc1cc(-c2cnn(-c3c(C(F)(F)F)c(C(F)(F)C(F)(F)F)nn3C)c2)cc(C(=O)NC2(C#N)CC2)c1Cl [Ic-91],100%,100%,80%,100%,100%,100%,100%,100%,100%,100%,100%,100%,100%,,,,,
Cn1nc(C(F)(F)C(F)(F)F)c(C(F)(F)F)c1-n1cc(-c2cc(C(=O)NC3CC3)c(F)cc2Cl)cn1 [Ic-49],100%,100%,100%,90%,100%,100%,100%,100%,100%,100%,100%,100%,90%,100%,100%,,,
Cn1nc(C(F)(F)C(F)(F)F)c(C(F)(F)F)c1-n1cc(-c2cc(C(=O)NC3(C#N)CC3)c(F)cc2Cl)cn1 [Ic-48],100%,100%,100%,,100%,100%,,100%,100%,100%,80%,100%,,100%,100%,80%,100%,efficacy in % ([4]; application rate 100 g/ha): 90%; efficacy in % ([12]; application rate 100 g/ha): 90%
Cc1ncc(-c2cnn(-c3c(C(F)(F)F)c(C(F)(F)C(F)(F)F)nn3C)c2)cc1C(=O)NC1(C#N)CC1 [Ic-85],100%,100%,100%,100%,100%,100%,100%,100%,100%,100%,100%,100%,100%,100%,,,,
Cn1nc(C(F)(F)C(F)(F)F)c(C(F)(F)F)c1-n1cc(-c2cnc(Cl)c(C(=O)NC3(C#N)CC3)c2)cn1 [Ic-83],,100%,100%,,100%,,100%,100%,100%,100%,100%,100%,,100%,100%,,100%,efficacy in % ([1]; application rate 100 g/ha): 100%; efficacy in % ([4]; application rate 100 g/ha): 100%; efficacy in % ([6]; application rate 100 g/ha): 100%
COc1ncc(-c2cnn(-c3c(C(F)(F)F)c(C(F)(F)C(F)(F)F)nn3C)c2)cc1C(=O)NC1CC1 [Ic-86],100%,100%,100%,100%,100%,100%,,100%,100%,100%,100%,100%,100%,100%,100%,80%,100%,
Cc1cc(-c2cnn(-c3c(C(F)(F)F)c(C(F)(F)C(F)(F)F)nn3C)c2)cc(C(=O)NC2CC2)c1Cl [Ic-90],100%,100%,100%,90%,100%,100%,,100%,100%,100%,100%,100%,100%,100%,100%,100%,100%,
Cn1nc(C(F)(F)C(F)(F)F)c(C(F)(F)F)c1-n1cc(-c2cc(Cl)c(Cl)c(C(=O)NC3(C#N)CC3)c2)cn1 [Ic-95],100%,100%,100%,100%,100%,100%,100%,100%,100%,100%,100%,100%,90%,100%,100%,,,
